Target: T1, human thyroid receptor beta ligand-binding domain (THR-beta) (Homo sapiens, UniProt P10828)
T1 sequence (P10828 217-461 limits assumed): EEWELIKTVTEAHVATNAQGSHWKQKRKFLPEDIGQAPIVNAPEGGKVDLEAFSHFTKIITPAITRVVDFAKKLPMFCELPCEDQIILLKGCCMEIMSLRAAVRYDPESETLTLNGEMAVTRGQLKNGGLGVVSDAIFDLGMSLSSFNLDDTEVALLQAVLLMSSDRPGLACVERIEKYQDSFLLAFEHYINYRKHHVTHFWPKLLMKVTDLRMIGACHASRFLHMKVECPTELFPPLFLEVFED
Experiment: THR Biochemical Assay (Assay 1): TR-FRET thyroid receptor beta coactivator assay
Conditions: TR-FRET SRC2-2 coactivator recruitment, GST-tagged THR-beta LBD 1 nM, 1 hr at rt; read-out: Assay 1 (EC50, THR-beta agonist activity)
Description: THR Biochemical Assay (Assay 1)
The TR-FRET thyroid receptor beta coactivator assay is to be used. The assay uses a terbium-labeled anti-GST antibody, a glutathione-S-transferase (GST) tagged human thyroid receptor, beta or alpha, ligand-binding domain (LBD), and a fluorescein labeled SRC2-2 coactivator peptide. The antibody interacts with the LBD, where the agonist will also bind, resulting in increased affinity for the SRC2-2 coactivator peptide causing energy transfer of the acceptor fluorophore and a FRET emission shift from 495 to 520 nm. The energy transfer is detected as an increase in the fluorescence emission of the fluorescein acceptor, and a decrease in the fluorescence emission of the terbium donor. The assay is to be performed in a 384-well black plate in a final volume of 20 μL. Serial dilution of various test agonists will be performed in DMSO (1% final DMSO concentration) and added to the test plate. Thyroid receptor beta LBD will usually be added to the plate at a final concentration of 1 nM, followed by the mixture of the fluorescein labeled SRC2-2 coactivator peptide, and the terbium-labeled anti-GST antibody at final concentrations of 200 nM and 2 nM respectively. The assay will often be incubated for 1 hr at rt protected from light. The TR-FRET will then be measured on a Victor multilabel reader (Perkin Elmer) using an excitation wavelength of 340 nm with emission filters of 495 nm and 520 nm. The assay will be quantified by expressing a ratio (520:495) of the intensities, and the resulting activation curves; EC50 values are to be generated using a sigmoidal dose response (variable slope) equation in GraphPad™ Prism 8.0.

Structure (SMILES)	EC50 [µM]
CC1CCc2c(Oc3c(Cl)cc(-n4nc(N)c(=O)[nH]c4=O)cc3Cl)ccc(=O)n21 (single isomer, unassigned) [Example 37, 6-amino-2-(3,5-dichloro-4-((3-methyl-5-oxo-1,2,3,5-tetrahydroindolizin-8-yl)oxy)phenyl)-1,2,4-triazine-3,5(2H,4H)-dione]	< 0.05
Nc1nn(-c2cc(Cl)c(Oc3ccc(=O)n(C4CCC4)c3)c(Cl)c2)c(=O)[nH]c1=O [Example 30, 6-amino-2-(3,5-dichloro-4-((1-cyclobutyl-6-oxo-1,6-dihydropyridin-3-yl)oxy)phenyl)-1,2,4-triazine-3,5(2H,4H)-dione]	< 0.05
CC(C)n1cc(Oc2c(Cl)cc(-n3nc(C#N)c(=O)[nH]c3=O)cc2Cl)ccc1=O [Compound 7, 2-(3,5-dichloro-4-((1-isopropyl-6-oxo-1,6-dihydropyridin-3-yl)oxy)phenyl)-3,5-dioxo-2,3,4,5-tetrahydro-1,2,4-triazine-6-carbonitrile]	< 0.05
CC(C)c1cc(Oc2c(Cl)cc(NC(=O)C(=O)O)cc2Cl)c[nH]c1=O [Compound 4, 2-((3,5-dichloro-4-((5-isopropyl-6-oxo-1,6-dihydropyridin-3-yl)oxy)phenyl)amino)-2-oxoacetic acid]	0.05 to 0.25
CC1CCc2c(Oc3c(Cl)cc(-n4nc(C#N)c(=O)[nH]c4=O)cc3Cl)ccc(=O)n21 (stereo not drawn) [Example 35, 2-(3,5-dichloro-4-((3-methyl-5-oxo-1,2,3,5-tetrahydroindolizin-8-yl)oxy)phenyl)-3,5-dioxo-2,3,4,5-tetrahydro-1,2,4-triazine-6-carbonitrile]	< 0.05
CC1CCc2c(Oc3c(Cl)cc(-n4nc(N)c(=O)[nH]c4=O)cc3Cl)ccc(=O)n21 (single isomer, unassigned) [Example 38, 6-amino-2-(3,5-dichloro-4-((3-methyl-5-oxo-1,2,3,5-tetrahydroindolizin-8-yl)oxy)phenyl)-1,2,4-triazine-3,5(2H,4H)-dione]	0.05 to 0.25
Nc1nn(-c2cc(Cl)c(Oc3ccc(=O)n(C4CC4)c3)c(Cl)c2)c(=O)[nH]c1=O [Example 31, 6-amino-2-(3,5-dichloro-4-((1-cyclopropyl-6-oxo-1,6-dihydropyridin-3-yl)oxy)phenyl)-1,2,4-triazine-3,5(2H,4H)-dione]	0.05 to 0.25
CC(n1cc(Oc2c(Cl)cc(-n3nc(N)c(=O)[nH]c3=O)cc2Cl)ccc1=O)C(F)(F)F (stereo not drawn) [Example 32, 6-amino-2-(3,5-dichloro-4-((6-oxo-1-(1,1,1-trifluoropropan-2-yl)-1,6-dihydropyridin-3-yl)oxy)phenyl)-1,2,4-triazine-3,5(2H,4H)-dione]	0.05 to 0.25
CNC(=O)c1cc(Oc2c(Cl)cc(NC(=O)c3noc(=O)[nH]3)cc2Cl)c[nH]c1=O [Example 28, N-(3,5-dichloro-4-((5-(methylcarbamoyl)-6-oxo-1,6-dihydropyridin-3-yl)oxy)phenyl)-5-oxo-4,5-dihydro-1,2,4-oxadiazole-3-carboxamide]	1 to 25
CC1CCc2c(Oc3c(Cl)cc(-n4nc(N)c(=O)[nH]c4=O)cc3Cl)ccc(=O)n21 (stereo not drawn) [Example 36, 6-amino-2-(3,5-dichloro-4-((3-methyl-5-oxo-1,2,3,5-tetrahydroindolizin-8-yl)oxy)phenyl)-1,2,4-triazine-3,5(2H,4H)-dione]	< 0.05
CC(C)n1cc(Oc2c(Cl)cc(NC(=O)c3noc(=O)[nH]3)cc2Cl)ccc1=O [Compound 6, N-(3,5-dichloro-4-((1-isopropyl-6-oxo-1,6-dihydropyridin-3-yl)oxy)phenyl)-5-oxo-4,5-dihydro-1,2,4-oxadiazole-3-carboxamide]	0.05 to 0.25
CC1CCc2c(Oc3c(Cl)cc(-n4nc(C#N)c(=O)[nH]c4=O)cc3Cl)c[nH]c(=O)c21 (stereo not drawn) [Example 34, 2-(3,5-Dichloro-4-((7-methyl-1-oxo-2,5,6,7-tetrahydro-1H-cyclopenta[c]pyridin-4-yl)oxy)phenyl)-3,5-dioxo-2,3,4,5-tetrahydro-1,2,4-triazine-6-carbonitrile]	0.25 to 1

Continued, values first:

EC50 [µM]	Structure (SMILES)
0.25 to 1	Nc1nn(-c2cc(Cl)c(Oc3c[nH]c(=O)c(C(=O)NC4CC(F)(F)C4)c3)c(Cl)c2)c(=O)[nH]c1=O [Example 27, 5-(4-(6-Amino-3,5-dioxo-4,5-dihydro-1,2,4-triazin-2(3H)-yl)-2,6-dichlorophenoxy)-N-(3,3-difluorocyclobutyl)-2-oxo-1,2-dihydropyridine-3-carboxamide]
< 0.05	Cc1c(Oc2c(Cl)cc(-n3nc(N)c(=O)[nH]c3=O)cc2Cl)c[nH]c(=O)c1C(C)C [Example 18, 6-amino-2-(3,5-dichloro-4-((5-isopropyl-4-methyl-6-oxo-1,6-dihydropyridin-3-yl)oxy)phenyl)-1,2,4-triazine-3,5(2H,4H)-dione]
0.05 to 0.25	CC(C)n1cc(Oc2c(Cl)cc(-n3nc(N)c(=O)[nH]c3=O)cc2Cl)cc(Cl)c1=O [Example 23, 6-amino-2-(3,5-dichloro-4-((5-chloro-1-isopropyl-6-oxo-1,6-dihydropyridin-3-yl)oxy)phenyl)-1,2,4-triazine-3,5(2H,4H)-dione]
< 0.05	Nc1nn(-c2cc(Cl)c(Oc3c[nH]c(=O)c(C4CCC4)c3)c(Cl)c2)c(=O)[nH]c1=O [Example 24, 6-amino-2-(3,5-dichloro-4-((5-cyclobutyl-6-oxo-1,6-dihydropyridin-3-yl)oxy)phenyl)-1,2,4-triazine-3,5(2H,4H)-dione]
0.25 to 1	CC1CCc2c(Oc3c(Cl)cc(-n4nc(N)c(=O)[nH]c4=O)cc3Cl)c[nH]c(=O)c21 (stereo not drawn) [Example 15, 6-amino-2-[3,5-dichloro-4-[(7-methyl-1-oxo-2,5,6,7-tetrahydrocyclopenta[c]pyridin-4-yl)oxy]phenyl]-1,2,4-triazine-3,5-dione]
< 0.05	CC(C)c1cc(Oc2c(Cl)cc(NC(=O)c3noc(=O)[nH]3)cc2Cl)c[nH]c1=O [Compound 5, N-(3,5-dichloro-4-((5-isopropyl-6-oxo-1,6-dihydropyridin-3-yl)oxy)phenyl)-5-oxo-4,5-dihydro-1,2,4-oxadiazole-3-carboxamide]
0.05 to 0.25	CC(C)n1cc(Oc2c(Cl)cc(-n3nc(N)c(=O)[nH]c3=O)cc2Cl)ccc1=O [Compound 8, 6-amino-2-(3,5-dichloro-4-((1-isopropyl-6-oxo-1,6-dihydropyridin-3-yl)oxy)phenyl)-1,2,4-triazine-3,5(2H,4H)-dione]
0.25 to 1	CN(C)c1cc(Oc2c(Cl)cc(-n3nc(N)c(=O)[nH]c3=O)cc2Cl)c[nH]c1=O [Compound 13, 6-amino-2-(3,5-dichloro-4-((5-(dimethylamino)-6-oxo-1,6-dihydropyridin-3-yl)oxy)phenyl)-1,2,4-triazine-3,5(2H,4H)-dione]
0.25 to 1	Cc1cc(-n2nc(N)c(=O)[nH]c2=O)cc(C)c1Cc1c[nH]c(=O)c(C(C)C)c1 [Example 33, 6-amino-2-(4-((5-isopropyl-6-oxo-1,6-dihydropyridin-3-yl)methyl)-3,5-dimethylphenyl)-1,2,4-triazine-3,5(2H,4H)-dione]
0.05 to 0.25	Cc1cc(-n2nc(N)c(=O)[nH]c2=O)cc(C)c1Oc1c[nH]c(=O)c(C(C)C)c1 [Compound 9, 6-amino-2-(4-((5-isopropyl-6-oxo-1,6-dihydropyridin-3-yl)oxy)-3,5-dimethylphenyl)-1,2,4-triazine-3,5(2H,4H)-dione]
0.05 to 0.25	CC(C)n1cc(Oc2c(Cl)cc(-n3nc(N)c(=O)[nH]c3=O)cc2Cl)cc(F)c1=O [Example 22, 6-amino-2-(3,5-dichloro-4-((5-fluoro-1-isopropyl-6-oxo-1,6-dihydropyridin-3-yl)oxy)phenyl)-1,2,4-triazine-3,5(2H,4H)-dione]
< 0.05	CC(C)c1cc(Oc2c(Cl)cc(-n3nc(N)c(=O)[nH]c3=O)cc2Cl)cn(C)c1=O [Example 14, 6-amino-2-(3,5-dichloro-4-((5-isopropyl-1-methyl-6-oxo-1,6-dihydropyridin-3-yl)oxy)phenyl)-1,2,4-triazine-3,5(2H,4H)-dione]
0.05 to 0.25	CC(C)c1cc(Oc2c(Cl)cc(-c3nn(C)c(=O)[nH]c3=O)cc2Cl)c[nH]c1=O [Compound 10, 6-(3,5-dichloro-4-((5-isopropyl-6-oxo-1,6-dihydropyridin-3-yl)oxy)phenyl)-2-methyl-1,2,4-triazine-3,5(2H,4H)-dione]
< 0.05	Cc1cc(Oc2c(Cl)cc(-n3nc(N)c(=O)[nH]c3=O)cc2Cl)cn(C(C)C)c1=O [Example 19, 6-amino-2-(3,5-dichloro-4-((1-isopropyl-5-methyl-6-oxo-1,6-dihydropyridin-3-yl)oxy)phenyl)-1,2,4-triazine-3,5(2H,4H)-dione]
0.05 to 0.25	CC(C)c1cc(Oc2c(Cl)cc(-n3ncc(=O)[nH]c3=O)cc2Cl)c[nH]c1=O [Compound 3, 2-(3,5-dichloro-4-((5-isopropyl-6-oxo-1,6-dihydropyridin-3-yl)oxy)phenyl)-1,2,4-triazine-3,5(2H,4H)-dione]
